Test results taken from PubChem BioAssay (NCI).
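How tested: cells in 96-well plates exposed to compound for 48 hours at five concentrations. GI50 marks 50% less growth. TGI is the concentration that stops growth completely.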

Experiments:
Assay in all cases: NCI-60 cell line screen, 48 h
[1] = tested on: OVCAR-3 ovarian
[2] = tested on: CAKI-1 renal
[3] = tested on: NCI-H460 lung
[4] = tested on: SR leukemia
[5] = tested on: SNB-75 CNS
[6] = tested on: ACHN renal
[7] = tested on: UO-31 renal
[8] = tested on: 786-0 renal
[9] = tested on: NCI-H23 lung
[10] = tested on: U251 CNS
[11] = tested on: LOX IMVI melanoma
[12] = tested on: K-562 leukemia
[13] = tested on: SK-MEL-2 melanoma
[14] = tested on: RPMI-8226 leukemia
[15] = tested on: HOP-92 NSCLC
[16] = tested on: SK-MEL-28 melanoma
[17] = tested on: HCT-116 colon
[18] = tested on: HCT-15 colon
[19] = tested on: SF-295 CNS
[20] = tested on: NCI/ADR-RES ovarian
[21] = tested on: OVCAR-5 ovarian
[22] = tested on: A549 NSCLC
[23] = tested on: UACC-62 melanoma
[24] = tested on: HCC-2998 colon
[25] = tested on: HT29 colon
[26] = tested on: IGROV1 ovarian
[27] = tested on: SW-620 colon
[28] = tested on: NCI-H522 lung
[29] = tested on: NCI-H226 lung
[30] = tested on: T-47D breast
[31] = tested on: OVCAR-8 ovarian
[32] = tested on: EKVX NSCLC
[33] = tested on: MDA-MB-231 breast
[34] = tested on: SK-OV-3 ovarian
[35] = tested on: PC-3 prostate
[36] = tested on: MDA-MB-435
[37] = tested on: SF-268 CNS
[38] = tested on: HS 578T breast
[39] = tested on: KM12 colon
[40] = tested on: SN12C renal
[41] = tested on: CCRF-CEM leukemia
[42] = tested on: M14 melanoma
[43] = tested on: UACC-257 melanoma
[44] = tested on: TK-10 renal
[45] = tested on: BT-549 breast
[46] = tested on: OVCAR-4 ovarian
[47] = tested on: SK-MEL-5 melanoma
[48] = tested on: SF-539 CNS
[49] = tested on: HOP-62 NSCLC
[50] = tested on: RXF 393 renal
[51] = tested on: MALME-3M melanoma
[52] = tested on: DU-145 prostate
[53] = tested on: MOLT-4 leukemia
[54] = tested on: SNB-19 CNS
[55] = tested on: COLO 205 colon
[56] = tested on: A498 renal

**Q.** What does the source list for `C=C1C(=O)O[C@H]2[C@H]1CC/C(CNC(=O)/C=C/c1ccccc1)=C\CC[C@@]1(C)O[C@@H]21`?
**A.** GI50 [1]: 0.558 µM; TGI [1]: 1.83 µM; GI50 [2]: 1.17 µM; TGI [2]: 2.49 µM; GI50 [3]: 2.18 µM; TGI [3]: 5.05 µM; GI50 [4]: 0.38 µM; TGI [4]: 4.97 µM; GI50 [5]: 1.67 µM; TGI [5]: 4.74 µM; GI50 [6]: 0.755 µM; TGI [6]: 2.03 µM; GI50 [7]: 1.21 µM; TGI [7]: 2.56 µM; GI50 [8]: 1.48 µM; TGI [8]: 3.69 µM; GI50 [9]: 1.73 µM; TGI [9]: 3.9 µM; GI50 [10]: 1.77 µM; TGI [10]: 3.55 µM; GI50 [11]: 0.997 µM; TGI [11]: 2.29 µM; GI50 [12]: 0.551 µM; TGI [12]: 7.09 µM; GI50 [13]: 1.49 µM; TGI [13]: 3.41 µM; GI50 [14]: 0.71 µM; TGI [14]: 3.9 µM; GI50 [15]: 1.46 µM; TGI [15]: 3.38 µM; GI50 [16]: 1.48 µM; TGI [16]: 4.18 µM; GI50 [17]: 0.465 µM; TGI [17]: 1.75 µM; GI50 [18]: 0.672 µM; TGI [18]: 2.06 µM; GI50 [19]: 5.25 µM; TGI [19]: 18.7 µM; GI50 [20]: 3.29 µM; TGI [20]: 14.5 µM; GI50 [21]: 1.61 µM; TGI [21]: 4.27 µM; GI50 [22]: 4.39 µM; TGI [22]: 19 µM; GI50 [23]: 1.37 µM; TGI [23]: 2.76 µM; GI50 [24]: 1.78 µM; TGI [24]: 3.31 µM; GI50 [25]: 0.754 µM; TGI [25]: 3.04 µM; GI50 [26]: 1.7 µM; TGI [26]: 5.01 µM; GI50 [27]: 0.577 µM; TGI [27]: 2.32 µM; GI50 [28]: 0.357 µM; TGI [28]: 1.71 µM; GI50 [29]: 2.5 µM; TGI [29]: 6.59 µM; GI50 [30]: 1.44 µM; TGI [30]: 4.3 µM; GI50 [31]: 2.44 µM; TGI [31]: 9.78 µM; GI50 [32]: 1.65 µM; TGI [32]: 4.51 µM; GI50 [33]: 1.59 µM; TGI [33]: 3.08 µM; GI50 [34]: 13.2 µM; TGI [34]: 26 µM; GI50 [35]: 1.92 µM; TGI [35]: 4.15 µM; GI50 [36]: 1.35 µM; TGI [36]: 6.41 µM; GI50 [37]: 2.86 µM; TGI [37]: 8.88 µM; GI50 [38]: 4.21 µM; TGI [38]: 37 µM; GI50 [39]: 4.94 µM; TGI [39]: 16.7 µM; GI50 [40]: 1.15 µM; TGI [40]: 2.79 µM; GI50 [41]: 0.342 µM; TGI [41]: 1.3 µM; GI50 [42]: 1.15 µM; TGI [42]: 3.23 µM; GI50 [43]: 1.53 µM; TGI [43]: 3.99 µM; GI50 [44]: 1.42 µM; TGI [44]: 3.03 µM; GI50 [45]: 1.46 µM; TGI [45]: 3.47 µM; GI50 [46]: 1.51 µM; TGI [46]: 4.14 µM; GI50 [47]: 1.68 µM; TGI [47]: 3.06 µM; GI50 [48]: 0.964 µM; TGI [48]: 2.37 µM; GI50 [49]: 3.37 µM; TGI [49]: 14 µM; GI50 [50]: 0.864 µM; TGI [50]: 2.15 µM; GI50 [51]: 1.45 µM; TGI [51]: 3.29 µM; GI50 [52]: 0.603 µM; TGI [52]: 1.88 µM; GI50 [53]: 1.47 µM; TGI [53]: 5.22 µM; GI50 [54]: 2.39 µM; TGI [54]: 10.9 µM; GI50 [55]: 0.966 µM; TGI [55]: 2.6 µM; GI50 [56]: 1.96 µM; TGI [56]: 4 µM
